Entries after “also recorded” stand apart in the source; their conditions may differ.
How the values were obtained:
mitochondrial proteins = test: Biotin-switch analysis of mitochondrial protein S-nitrosation; format: biochemical, rat; conditions: for S-nitrosation of entire mitochondrial protein extract, comparison of NO donors: S-nitrosoglutathione 1 mM, DETA-NONOate 2 mM, ONOO- 3 additions of 100 μM, 37° C., 40 minutes
Protocol: Rat heart mitochondria were isolated using differential centrifugation (Tompkins, et al. (2005) Biochim. Biophys. Acta PMID: 16278076). Protein was determined by the Folin-phenol method (Lowry, et al. (1951) J. Bio. Chem. 193:265-75) against a standard curve constructed using bovine serum albumin. Mitochondrial incubations and all subsequent steps were performed in the dark. One mg of mitochondrial protein was suspended in 1 mL of mitochondrial respiration buffer (Tompkins, et al. (2005) supra) containing respiratory substrates glutamate (5 mM), malate (2.5 mM) and succinate (5 mM). […] Samples were centrifuged (5 minutes, 14,000×g), and supernatants removed. The pellets were then resuspended in 1 mL of respiration buffer, and centrifuged again. Pellets were frozen in liquid N2 for subsequent analysis. For ONOO^− treatments, 4 μL of 25 mM ONOO^− stock (100 μM final concentration) was added the cap of the reaction tube, the cap quickly closed and the tube shaken immediately. The process was then repeated twice at 30 second intervals, for a total of 3 additions. Mitochondria were then pelleted, washed, and frozen as for S-nitrosoglutathione samples. Complex I activity was assayed as the rotenone-sensitive oxidation of NADH, at 340 nm in the presence of coenzyme Q1 (Borutaite, et al. (2000) supra). Complex IV was assayed by monitoring the cyanide-sensitive first-order oxidation of reduced cytochrome c, at 550 nm according to established methods (Cleeter, et al. (1994) supra).
For biotin-switch analysis, intact mitochondrial pellets (1 mg protein solubilized in extraction buffer) or chromatography column fractions were analyzed in accordance with known methods (Jaffrey & Snyder (2001) supra). Samples were separated in duplicate on non-reducing SDS-PAGE gels; half the gel was stained with COOMASSIE® blue, and the other half blotted and probed with streptavidin-HRP and ECL™ detection (GE biosciences). Blots and stained gels were aligned, and S-nitrosated proteins excised, trypsinized, and identified by peptide mass fingerprinting. Mass spectra (MALDI-TOF) were analyzed using the MASCOT™ algorithm available on the world-wide web at matrixscience.com.

[1] = tested on: isolated adult rat cardiomyocytes; test: Cardiomyocyte model of ischemia-reperfusion injury, cell viability by Trypan blue exclusion; format: cell-based
Protocol: Isolated adult rat cardiomyocytes were subjected to 1 hour ischemia (anoxic, glucose free medium, pH 6.5) followed by 30 minutes reoxygenation (labeled “HR”). Cell viability was assayed by Trypan blue exclusion. […] All data are means±SEM, N>3.
Adult rat cardiomyocytes were prepared by collagenase perfusion according to standard methods (Dai, et al. (2001) supra), yielding ˜4×10^6 cells per heart, >80% rod-shaped and viable. Incubations were in a shaking water bath at 37° C., each utilizing 5×10^5 cells in 5 mL of the KH buffers described below. For the control, cells were incubated for 2 hours in oxygenated KH buffer (95/5 O2/CO2). For ischemia-reperfusion treatment, cells were subjected to 30 minutes in oxygenated KH buffer, 1 hour in “ischemic” KH buffer (95/5 N2/CO2, pH 6.5, no glucose), and 30 minutes in oxygenated KH buffer. For the ischemia-reperfusion injury and test compound group of cells, ischemia-reperfusion injury was carried out as described above with test compound present during the 30 minute equilibration prior to ischemia-reperfusion and absent during ischemia. […] At the end of each protocol, cell viability was assayed (Trypan blue), and mitochondrial function determined (measurement of ΔΨm with the fluorescent probe TMRE, respiration with an O2 electrode, and S-nitrosothiol content by chemiluminescence and biotin-switch.

[2] = tested on: isolated adult rat cardiomyocytes; test: Mitochondrial H+ leak in cardiomyocytes (respiration divided by TMRE fluorescence) after ischemia-reperfusion; format: cell-based; conditions: doses that protect cardiomyocyte viability
Protocol: Cardiomyocyte respiration rate was measured with an oxygen electrode, and membrane potential with the fluorescent dye TMRE (20 nM) in a fluorimeter. H^+ leak is essentially the amount of work the respiratory chain must do to maintain a given membrane potential, and experimentally is derived by dividing respiration by TMRE fluoresence. […] All data are means±SEM, N>3.
Adult rat cardiomyocytes were prepared by collagenase perfusion according to standard methods (Dai, et al. (2001) supra), yielding ˜4×10^6 cells per heart, >80% rod-shaped and viable. Incubations were in a shaking water bath at 37° C., each utilizing 5×10^5 cells in 5 mL of the KH buffers described below. For the control, cells were incubated for 2 hours in oxygenated KH buffer (95/5 O2/CO2). For ischemia-reperfusion treatment, cells were subjected to 30 minutes in oxygenated KH buffer, 1 hour in “ischemic” KH buffer (95/5 N2/CO2, pH 6.5, no glucose), and 30 minutes in oxygenated KH buffer. […] At the end of each protocol, cell viability was assayed (Trypan blue), and mitochondrial function determined (measurement of ΔΨm with the fluorescent probe TMRE, respiration with an O2 electrode, and S-nitrosothiol content by chemiluminescence and biotin-switch.

perfused rat hearts = test: Langendorff isolated perfused rat heart model of ischemia-reperfusion injury; conditions: 10 μM infused during equilibration; 25 minutes global ischemia, 30 minutes reperfusion; dark
Protocol: Hearts were perfused in constant flow mode, with Krebs-Henseleit (KH) buffer, gassed with 95/5 O2/CO2. Following equilibration (during which S-nitroso-2-mercaptopropylglycine was infused at 10 μM final concentration), global ischemia was imposed for 25 minutes, followed by 30 minutes of reperfusion. Cardiac functional parameters were measured throughout, with a left-ventricular balloon attached to a pressure transducer. Recovery of rate pressure product (RPP, i.e., left ventricular developed pressure multiplied by heart rate) was greater in S-nitroso-2-mercaptopropylglycine treated hearts. Control hearts in these experiments were subject to dark conditions.
Rat hearts were perfused according to methods well-known in the art (Digerness, et al. (2003) J. Thorac. Cardiovasc. Surg. 125:863-871), with Krebs-Henseleit (KH) buffer, gassed with 95/5 O2/CO2. […] Cardiac functional parameters (left ventricular pressure, rate pressure product, oxygen consumption, diastolic stiffness, etc.) were measured throughout, and mitochondria were isolated at the end of the procedure. Several mitochondrial parameters are then determined including respiration, Ca^2+ loading capacity, reactive oxygen species generation, permeability transition pore opening threshold, respiratory complex activities (Brookes, et al. (2002) Methods Enzymol. 359:305-319), and protein S-nitrosation as disclosed herein.

[3] = cited from earlier work
[4] = tested on: cell and organ models of ischemia-reperfusion; conditions: cited from earlier work

SMILES: CC(SN=O)C(=O)NCC(=O)O (stereo not shown)
- S-nitrosation of mitochondrial proteins compared with S-nitrosoglutathione (mitochondrial proteins; same concentrations, 10-100 μM): much greater degree of S-nitrosation of mitochondrial proteins than did S-nitrosoglutathione
- protection of cardiomyocyte viability from ischemia-reperfusion injury ([1]; 10 μM or 20 μM, 1 hour ischemia, 30 minutes reoxygenation): dose-dependent and significant protection
- protection of cardiomyocyte viability compared with ischemic preconditioning (IPC) ([1]; higher dose, 20 μM): more effective than IPC
- effect on increase in mitochondrial H+ leak induced by ischemia-reperfusion [2]: prevent large increases in H^+ leak; also recorded: protect against the large increase in proton leak
- recovery of rate pressure product (RPP) after ischemia-reperfusion versus control hearts (perfused rat hearts): greater

SMILES: CC(S)C(=O)NCC(=O)O (stereo not shown) [2-mercaptopropionylglycine, 2-Mercaptopropionylglycine]
- bioavailability ([3]; in vivo): bioavailable
- cellular and mitochondrial distribution ([3]; radioactive tracer, whole animals): readily enters cells and accumulates in mitochondria
- concentrations required to elicit protection [4]: 0.3 to 1.0 mM

SMILES: O=NOO [ONOO^−, peroxynitrite]
- S-nitrosation of entire mitochondrial protein extract, comparison of NO donors (mitochondrial proteins): S-nitrosoglutathione resulted in far more S-nitrosation than DETA-NONOate or ONOO^−

SMILES: NCCN(CCN)/[N+]([O-])=N/O [DETA-NONOate]
- S-nitrosation of entire mitochondrial protein extract, comparison of NO donors (mitochondrial proteins): S-nitrosoglutathione resulted in far more S-nitrosation than DETA-NONOate or ONOO^−

— patent US20060122267A1, “Compositions and methods for attenuating mitochondria-mediated cell injury” (priority 2003, published 2006)
